Columns and labels:
BT-474 cell = assay: inhibitory activity on cell proliferation (Cell-Titer-Glo), BT-474; format: cell-based; settings: Homo sapiens, BT-474, 72 h; incubation for 3 days, Cell-Titer-Glo
Description: Purpose of the assay: to detect the inhibitory activity of the test compounds on cell proliferation.
Principle of the assay: the luciferase in a Cell-Titer-Glo reagent produces oxidized luciferin with luciferin, oxygen and ATP as reaction substrates, and releases energy in the form of light. Since the luciferase reaction requires ATP, the total amount of light generated by the reaction is proportional to the total amount of ATP that reflects cell viability.
Cell Titer-Glo cell viability assay kit with luminescence (Promega #G7573)
According to the schematic diagram of the cell seed plate, cells were seeded in a 384- or 96-well plate at a density of 1000 cells per well and 25 μL per well, and 25 μL of PBS was added to the wells near edge of the place where no cells were seeded.
(1) The stock solution of the compounds has a concentration of 10 mM, and the compounds were diluted with DMSO to an initial concentration of 4 mM. The compounds were added to the plate with stock solution of compounds, 9 μL per well.
(2) The compounds were diluted with an ECHO liquid workstation, where 125 nL of compounds were added to each well of the cell plate, 125 nL of DMSO was added to each of the cell well in columns 2 and 23, and 125 nL of DMSO was added to each PBS well in columns 1 and 24.
2.3 After addition of the compounds, the cell plate was centrifuged at 1000 rpm for 1 min, and then placed in a 37° C., 5% CO2 incubator for incubation for 3 days.
The cell plate was taken out from the incubator and equilibrated at room temperature for 30 minutes. 25 μL of Cell-Titer-Glo reagent was added to each well, shaken for one minute to allow well mixed, and centrifuged at 1000 rpm for 1 minute. After 10 minutes, the plate was read on PerkinElmer Envision, and the […] reading time was set to 0.2 second.

[1] = tested on: subcutaneous xenograft tumor of human gastric cancer NCI-N87 cells; format: in vivo; settings: for Tumor volume (mm3) (Day 21) / T/C (%) / TGI (%): 3 mg/kg (D0-7) + 1 mg/kg (D8-21); for Tumor volume (mm3) (Day 21): NCI-N87 xenograft, Mean ± SEM; for T/C (%) / TGI (%): day 21
Procedure: Purpose of the assay: to evaluate the in vivo efficacy of compounds to be tested on subcutaneous xenograft tumor of human gastric cancer NCI-N87 cells in a BALB/c nude mouse model.
Animals of the assay: female BALB/c nude mice, 6-8 weeks old, weighted 18-22 grams; supplier: shanghai sippr bk laboratory animals Ltd.
Human gastric cancer NCI-N87 cells were cultured in monolayer in vitro. The culture conditions were RPMI-1640 medium plus 10% fetal bovine serum, 100 U/mL penicillin, 100 μg/mL streptomycin and 2 mM glutamine, 37° C., 5% CO2. The passaging was performed by the conventional digestion with trypsin-EDTA twice a week. When the cell saturation was 80%-90%, the cells were collected, counted and inoculated.
0.2 mL (10×10^6 cells) of NCI-N87 cells were inoculated subcutaneously on the right back of each nude mouse (PBS+Matrigel, 1:1). When the average tumor volume reached 145 mm^3, administration to each group was started.
The test compounds were formulated into a 0.3 mg/mL clear solution in the solvents of 10% NMP (N-methylpyrrolidone)+10% ethylene glycol stearate+80% water.
The assay index is to investigate whether tumor growth is inhibited, delayed or cured. Tumor diameter was measured twice a week with a vernier caliper. The calculation formula of tumor volume is: V=0.5a×b^2, wherein a and b represent the long and short diameters of tumor, respectively.
The antitumor efficacy of the compounds were evaluated by TGI (%) or relative tumor proliferation rate T/C (%). TGI (%) reflects the tumor growth inhibition rate. TGI (%) is calculated as follows: TGI (%)=[1−(average tumor volume at the end of administration for a certain treatment group−average tumor volume at the beginning of administration for this treatment group)/(average tumor volume at the end of treatment for a solvent control group−average tumor volume at the beginning of administration for this solvent control group)][…].
Relative tumor proliferation rate T/C (%): the calculation formula is as follows: T/C %=TRTV/CRTV (TRTV: RTV for the treatment group; CRTV: RTV for the negative control group). Relative tumor volume (RTV) is calculated based on tumor measurement results. The calculation formula is RTV=Vt/V0, wherein V0 is the average tumor volume measured at the beginning of administration (i.e., d0) to each group, Vt is the average tumor volume at a certain measurement, and the data for TRTV and CRTV were taken on the same day.
The tumor weight was measured after the assay is over and the T/C weight percentage was calculated. T weight and C weight represent the tumor weight of the administration group and the vehicle control group, respectively.
Statistical analysis included the mean and standard error (SEM) of tumor volume at each time point in each group. […] The comparison between two groups was analyzed by T-test, and the comparison among three or more groups was analyzed by one-way ANOVA. […] All data analysis was carried out with SPSS 17.0. p<0.05 was considered a significant difference.

Row | Structure (SMILES) | IC50 (BT-474 cell) | Tumor volume (mm3) (Day 21) [1] | T/C (%) [1] | TGI (%) [1] | body weight of test animals (reference index for drug toxicity) ([1]; mouse, in vivo)
1 | C=CC(=O)N1[C@@H]2CC[C@H]1C[C@H](Oc1cc3c(Nc4ccc(Cl)c(Cl)c4F)ncnc3cc1OC)C2 [Example 8] | 0.39 nM | 30 ± 7 mm3 | 4.19% | 119.71% | significantly better than that of the control compound Poziotinib
2 | C=CC(=O)N1CCC(Oc2cc3c(Nc4ccc(Cl)c(Cl)c4F)ncnc3cc2OC)CC1 [Poziotinib, reference compound] | – | 54 ± 12 mm3 | 7.55% | 115.6% | –

Source: patent US20210078958A1, “QUINAZOLINE DERIVATIVE AND USE THEREOF” (MEDSHINE DISCOVERY INC., priority 2017, published 2021)
